In patent EP1353624B1, “PHARMACEUTICAL COMPOSITIONS OF A NON-ENTERIC COATED PROTON PUMP INHIBITOR WITH A CARBONATE SALT AND BICARBONATE SALT COMBINATION” (TAP Pharmaceutical Products, Inc., priority 2000, dated 2002):
Where “and” joins values, the source holds several entries; their conditions need not be identical. Equal entries are not always repeated. Where two headings read alike, the source gives them in different places. Each block holds one molecule with its values, some of them ahead of it.

Columns and labels:
[1] = 50 mL SGF
Protocol: To determine and compare the gastric acid neutralizing capacity of sodium bicarbonate solution to carbicarb solution, the following experiment was performed.
(§1) Aqueous solutions to be tested were made up from starting materials sodium carbonate, (anhydrous, available from Mallinckrodt) and sodium bicarbonate (available from Mallinckrodt). An 8.4% sodium bicarbonate solution and an 8.4% carbicarb solution (containing equimolar amounts of sodium bicarbonate and sodium carbonate) were tested as follows.
50 mL simulated gastric fluid (SGF, prepared according to the procedure described in Example 1) was pipetted into an Erlenmeyer flask. Four drops of methyl red, then four drops of phenolphthalein were then added to the flask. The pH of solution was monitored with a pH electrode. The solution to be tested was added to a 5-mL buret. The gastric media in the flask was then titrated with the test solution to an endpoint within 0.2 pH units of pH 6.5 (as indicated by the color change and pH reading). Then, titration was resumed, to an endpoint within 0.2 pH units of pH 8.0 (as indicated by the color change and pH reading).

[2] = Description: To quantify the gas produced by the neutralization of simulated gastric fluid (SGF) by carbicarb and by sodium bicarbonate in vitro, a standard CO2 assay technique was utilized (see USP 24 -NF 19 Beta, The United States Pharmacopeia 2000, p. 306)
as §1
The specimen gas was generated by reacting either 450 mL simulated gastric fluid (SGF) with 50 mL of the carbicarb solution; or by reacting 45 ml of simulated gastric fluid with 5 ml of sodium bicarbonate solution in a 500 mL Erlenmeyer flask.
To make Simulated Gastric Fluid (SGF) 1 g sodium chloride was transferred to a 500-mL volumetric flask. After adding 1.6 g pepsin, 25 mL 2 N hydrochloric acid was added and swirled to mix. The resultant solution could then be diluted to the appropriate volume with water.
The amount of gas generated in a twenty-minute time period was measured in an Orsat Glass Vapor Absorption Apparatus, by the standard assay technique. Two tests were run for each solution. The volume of CO2 generated was calculated from the difference in the initial volume of gas produced (ml) and the final volume of gas remaining (ml).

[3] = Stability of lansoprazole in simulated gastric fluid (chromatographic assay); type: physicochemical; settings: for % labeled amount of lansoprazole remaining: room temperature; for drug degraded: at 60 minutes in SGF
Protocol: Lansoprazole degrades in acid and is stable in base. This study was performed to determine 1) how quickly lansoprazole degrades in simulated gastric fluid (SGF); and 2) whether a high pH-buffering agent (carbicarb which is an equimolar mixture of sodium carbonate and sodium bicarbonate) could be used to retard the degradation of lansoprazole in SGF. All the experiments were conducted at room temperature (22°C ± 2°C).
The PPI test sample included lansoprazole (30 mg); mannitol (60 mg), meglumine (30 mg) and sodium hydroxide (3 mg).
Then 5.0 mL 2 N sodium hydroxide solution was added to the 0-minutes beaker with mixing. To each of the 5 remaining beakers, 10.0 mL of 8.4% carbicarb solution was added and stirred to mix. At the appropriate time interval (corresponding to the individual beaker numbers), 5.0 mL 2 N sodium hydroxide solution was added to stop the reaction. A portion of the resulting solution was diluted with pH 10 diluent. 10 µL of the resulting solution was then injected into the chromatographic system for assay.
Granular formulations of lansoprazole, including carbicarb were also made and tested. The stability of the granular formulations was tested according to the procedure of Example 3. The granular formulations of lansoprazole for this example were prepared as follows.
The coherent mass containing lansoprazole, carbicarb, lactose and sucrose solution was prepared as described above, in Example 3. This coherent mass was passed through a 20-mesh screen and the resulting granules were dried at 50°C for 12 hours. Granules containing 30-mg lansoprazole were transferred to an amber color container along with and an equal weight of flavor granules. 10 ml of water ((HPLC grade, Fisher Scientific, Pittsburgh, PA) was added to the container with gentle shaking to reconstitute the suspension. The resulting suspension of Lansoprazole was tested for stability in simulated gastric fluid as described earlier in Experiment 3.

[4] = Storage stability of granules (potency and related substances); type: physicochemical; settings: granules of Examples 4 and 5; 22°C for 21 days in closed containers
Protocol: Additionally, the granules prepared in Examples 4 and 5 were kept at 22°C for 21 days in closed containers.

[5] = 45 mL SGF and 5 mL test solution, gas generated in twenty minutes
[6] = 450 mL SGF and 50 mL test solution, ten-fold scale-up of the 45 mL/5 mL run

Volume of Acid Neutralizer Solution Required ([1]; pH of simulated gastric fluid after adding neutralizer 1.2): 0 mL
Volume of Acid Neutralizer Solution Required ([1]; pH of simulated gastric fluid after adding neutralizer 2.0): 3.47 mL
Volume of Acid Neutralizer Solution Required ([1]; pH of simulated gastric fluid after adding neutralizer 3.0): 4.09 mL
Volume of Acid Neutralizer Solution Required ([1]; pH of simulated gastric fluid after adding neutralizer 4.0): 4.19 mL
Volume of Acid Neutralizer Solution Required ([1]; pH of simulated gastric fluid after adding neutralizer 5.0): 4.27 mL
Volume of Acid Neutralizer Solution Required ([1]; pH of simulated gastric fluid after adding neutralizer 6.0): 4.48 mL
Volume of Acid Neutralizer Solution Required ([1]; pH of simulated gastric fluid after adding neutralizer 7.0): 5.00 mL
Volume of Acid Neutralizer Solution Required ([1]; pH of simulated gastric fluid after adding neutralizer 8.0): 6.20 mL
volume added into the gastric media to reach the endpoint ([1]; titration endpoint (pH not given; method: pH 6.5, then pH 8.0)): 4.71 mL
Volume of CO2 ([2]; 45 mL SGF and 5 mL test solution, difference of initial and residual gas volume): 2.9 mL and 5.3 mL
Initial Gas Volume [2, 5]: 93.0 mL and 82.0 mL
Residual Gas Volume [2, 5]: 90.1 mL and 76.7 mL
Initial Gas Volume [2, 6]: 930.0 mL and 820.0 mL
Residual Gas Volume [2, 6]: 901.0 mL and 767.0 mL
Volume of CO2 [2, 6]: 29.0 mL and 53.0 mL
Compound: O=C([O-])O.[Na+] [8.4% sodium bicarbonate solution, sodium bicarbonate]

% labeled amount of lansoprazole remaining ([3]; Sample in carbicarb solution, time in SGF 0 minutes): 98.0%
% labeled amount of lansoprazole remaining ([3]; Sample in carbicarb solution, time in SGF 5 minutes): 96.7%
% labeled amount of lansoprazole remaining ([3]; Sample in carbicarb solution, time in SGF 15 minutes): 97.4%
% labeled amount of lansoprazole remaining ([3]; Sample in carbicarb solution, time in SGF 30 minutes): 95.8%
% labeled amount of lansoprazole remaining ([3]; Sample in carbicarb solution, time in SGF 45 minutes): 94.4%
% labeled amount of lansoprazole remaining ([3]; Sample in carbicarb solution, time in SGF 60 minutes): 96.5%
% labeled amount of lansoprazole remaining ([3]; Sample in water, time in SGF 0 minutes): 99.5%
% labeled amount of lansoprazole remaining ([3]; Sample in water, time in SGF 5 minutes): 39.9%
% labeled amount of lansoprazole remaining ([3]; Sample in water, time in SGF 15 minutes): 10.1%
% labeled amount of lansoprazole remaining ([3]; Sample in water, time in SGF 30 minutes): 4.1%
% labeled amount of lansoprazole remaining ([3]; Sample in water, time in SGF 45 minutes): 2.7%
% labeled amount of lansoprazole remaining ([3]; Sample in water, time in SGF 60 minutes): 2.0%
time stable in simulated gastric fluid ([3]; administered with carbicarb into SGF): at least 60 minutes
degradation ([3]; administered with carbicarb into SGF, 60 minutes): < 5%
drug degraded ([3]; drug constituted with carbicarb solution): 3.5%
drug degraded ([3]; drug reconstituted with water): 98%
time stable in simulated gastric fluid ([3]; formulated with carbicarb as granules (Example 4)): at least 60 minutes
time stable in simulated gastric fluid ([3]; suspension reconstituted from lansoprazole/carbicarb granules (Example 5)): at least 60 minutes
stability on storage (potency and related substances) [4]: stable
Compound: Cc1c(OCC(F)(F)F)ccnc1C[S+]([O-])c1nc2ccccc2[nH]1 (stereo not shown) [lansoprazole]
